Measured values reported in patent US20060116451A1, “Stabilization of antioxidants” (priority 2004, published 2006).

Experiment: Residual antioxidant activity (ABTS^+) upon exposure to UV-irradiated TiO2
Type: physicochemical
Conditions: FIG. 6
Procedure: Exposure of enzymes to UV-irradiated TiO2: Enzyme (0.8 mg protein/mL, total 10 mL in 25 mM phosphate buffer, pH 7.5) was placed in an open scintillation vial. TiO2 fine powder (0.25 mg/mL) was added to the protein solution and the suspension was stirred gently at room temperature (25° C.) with a magnetic stir bar placed inside the vial. The enzyme-TiO2 suspension was placed under a […] UV lamp (model No. B-100AP, UVP, San Gabriel, Calif.). The distance between the UV lamp and the vial was 18 cm. At this distance, the UV irradiance at 365 nm (λmax) was 8 mW/cm^2 (determined using a […]® UV meter (Model No. J-221). It was also verified that there was no thermal denaturation of the enzyme during irradiation and the temperature of the enzyme-TiO2 suspension remained constant (25±2° C.) throughout. Exposure of antioxidants to UV-irradiated TiO2: Trolox (0.01 mg/mL) was dissolved in 10 mL phosphate buffer (25 mM, pH 7.5). TiO2 (0.25 mg/mL) was added to the Trolox solution. The suspension was stirred and irradiated with UV as described above. At 30 min intervals, 1 mL aliquots were removed from the irradiating suspension and filtered through a 0.2 μm filter. […] Determination of residual antioxidant activity: Antioxidant activities of modified enzymes and the modifiers were measured according to the following modification of the assay reported by Re et al. Re, […].; Yang, M.; Rice-Evans, C. […]

loss of free radical absorbing activity during the first hour of photooxidation (TiO2-UV): 80%
Compound: Cc1c(C)c2c(c(C)c1O)CCC(C)(C(=O)O)O2 (stereo not shown) [Trolox, 6-hydroxy-2,5,7,8-tetramethylchroman-2-carboxylic acid]
